Here are results for three compounds from patent US5547976A, “Further indole derivatives with antiviral activity” (Burroughs Wellcome Co., priority 1992, dated 1996).

Data set [1] is described as follows: Cell toxicity (cell growth inhibition assay, MTT uptake). The data set is classed as cell-based. To be noted: monkey, 50% inhibition of cell viability at 96 hours, Vero cells, read-out: Cytoxicity CClD50. On the procedure: Cell toxicity is assessed in cell growth inhibition assay. Subconfluent cultures of Vero cells grown on 96-well microtiter dishes are exposed to different dilutions of drug, and cell viability determined daily on replicate cultures using uptake of a tetrazolium dye (MTT). The concentration required for 50% inhibition of cell viability at 96 hours is termed CCID50.

The test system of data set [2] is Human cytomegalovirus (HCMV), CMV strain AD 169. Kind of data set: CMV assay (plaque reduction assay, MRC5 cells). To be noted: Human betaherpesvirus 5, HCMV strain AD 169. In kind it is cell-based. On the procedure: Human cytomegalovirus (HCMV) was assayed in monolayers of either MRC5 cells (human embryonic lung) in multiwell trays. The strandard CMV strain AD 169 was used. Activity of compounds is determined in the plaque reduction assay, in which a cell monolayer is infected with a suspension of HCMV, and then overlaid with nutrient […] in the form of a gel to ensure that there is no spread of virus throughout the culture. A range of concentrations of compound of known molarity was incorporated in the nutrient agarose overlay. Plaque numbers at each concentration of drug are expressed as percentage of the control and a dose-response curve is drawn.
For orientation: Plaque reduction counts the foci of infection that form in a cell layer.

As to `O=C1c2c(c3c4ccccc4[nH]c3c3[nH]c4ccccc4c23)C(=O)N1Cc1cc(C(F)(F)F)cc(C(F)(F)F)c1` [12,13-Dihydro-6-(3,5-di-trifluoromethylphenylmethyl)-5H-indolo [2,3a]pyrrolo[3,4c]carbazole-5,7(6H)-dione], the CC50 at 96 h in data set [1] was over 125 µM. Besides, it took 5.7 µM to reach half-maximal inhibition in data set [2] (IC50).
The like results for `O=C1c2c(c3c4ccccc4[nH]c3c3[nH]c4ccccc4c23)C(=O)N1Cc1cccc(C(F)(F)F)c1` [12,13-Dihydro-6-(3-trifluoromethylphenylmethyl)-5H-indolo[2,3a]pyrrolo[3,4c]-carbazole-5,7-(6H)-dione] were, in that order, over 500 µM and 1.2 µM.
On the same counts, the results for `O=C1NC(=O)c2c1c1c3cc(Cl)ccc3[nH]c1c1[nH]c3ccc(Cl)cc3c21` [12,13-Dihydro-3,9-dichloro-5H-indolo[2,3-a]pyrrolo[3,4-c]carbazole-5,7(6H)-dione] are over 125 µM and 0.16 µM.
